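Test compounds were applied to cells in 96-well plates for 48 hours at 5 doses. Here, GI50 denotes the concentration required for 50% inhibition of growth. The concentration for full growth arrest is given as TGI.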
Experiments:
Experiment in all cases: NCI anticancer screen, dose series, 48 h
786-0 renal = tested on: 786-0 renal
A498 renal = tested on: A498 renal
A549 NSCLC = tested on: A549 NSCLC
ACHN renal = tested on: ACHN renal
BT-549 breast = tested on: BT-549 breast
CAKI-1 renal = tested on: CAKI-1 renal
CCRF-CEM leukemia = tested on: CCRF-CEM leukemia
COLO 205 colon = tested on: COLO 205 colon
DU-145 prostate = tested on: DU-145 prostate
EKVX NSCLC = tested on: EKVX NSCLC
HCC-2998 colon = tested on: HCC-2998 colon
HCT-116 colon = tested on: HCT-116 colon
HCT-15 colon = tested on: HCT-15 colon
HL-60(TB) leukemia = tested on: HL-60(TB) leukemia
HOP-62 NSCLC = tested on: HOP-62 NSCLC
HOP-92 NSCLC = tested on: HOP-92 NSCLC
HS 578T breast = tested on: HS 578T breast
HT29 colon = tested on: HT29 colon
IGROV1 ovarian = tested on: IGROV1 ovarian
K-562 leukemia = tested on: K-562 leukemia
KM12 colon = tested on: KM12 colon
LOX IMVI melanoma = tested on: LOX IMVI melanoma
M14 melanoma = tested on: M14 melanoma
MALME-3M melanoma = tested on: MALME-3M melanoma
MCF7 breast = tested on: MCF7 breast
MDA-MB-231 breast = tested on: MDA-MB-231 breast
MDA-MB-435 = tested on: MDA-MB-435
MDA-N = tested on: MDA-N
MOLT-4 leukemia = tested on: MOLT-4 leukemia
NCI-H226 lung = tested on: NCI-H226 lung
NCI-H23 lung = tested on: NCI-H23 lung
NCI-H460 lung = tested on: NCI-H460 lung
NCI-H522 lung = tested on: NCI-H522 lung
NCI/ADR-RES ovarian = tested on: NCI/ADR-RES ovarian
OVCAR-3 ovarian = tested on: OVCAR-3 ovarian
OVCAR-4 ovarian = tested on: OVCAR-4 ovarian
OVCAR-5 ovarian = tested on: OVCAR-5 ovarian
OVCAR-8 ovarian = tested on: OVCAR-8 ovarian
PC-3 prostate = tested on: PC-3 prostate
RPMI-8226 leukemia = tested on: RPMI-8226 leukemia
RXF 393 renal = tested on: RXF 393 renal
SF-268 CNS = tested on: SF-268 CNS
SF-295 CNS = tested on: SF-295 CNS
SF-539 CNS = tested on: SF-539 CNS
SK-MEL-2 melanoma = tested on: SK-MEL-2 melanoma
SK-MEL-28 melanoma = tested on: SK-MEL-28 melanoma
SK-MEL-5 melanoma = tested on: SK-MEL-5 melanoma
SK-OV-3 ovarian = tested on: SK-OV-3 ovarian
SN12C renal = tested on: SN12C renal
SNB-19 CNS = tested on: SNB-19 CNS
SNB-75 CNS = tested on: SNB-75 CNS
SR leukemia = tested on: SR leukemia
SW-620 colon = tested on: SW-620 colon
T-47D breast = tested on: T-47D breast
TK-10 renal = tested on: TK-10 renal
U251 CNS = tested on: U251 CNS
UACC-257 melanoma = tested on: UACC-257 melanoma
UACC-62 melanoma = tested on: UACC-62 melanoma
UO-31 renal = tested on: UO-31 renal
KM20L2 colon = tested on: KM20L2 colon
M19-MEL melanoma = tested on: M19-MEL melanoma

## Cn1c2ccc(F)cc2c2ccc3c(c21)C(=O)C=CC3=O
786-0 renal
  TGI: 8.21 µM
A498 renal
  TGI: > 100 µM
A549 NSCLC
  TGI: > 100 µM
ACHN renal
  TGI: 13.7 µM
BT-549 breast
  TGI: > 45 µM
CAKI-1 renal
  TGI: 11.8 µM
CCRF-CEM leukemia
  TGI: 5.27 µM
COLO 205 colon
  TGI: 21.6 µM
DU-145 prostate
  TGI: 43.3 µM
EKVX NSCLC
  TGI: 37.9 µM
HCC-2998 colon
  TGI: 67.7 µM
HCT-116 colon
  TGI: 20.3 µM
HCT-15 colon
  TGI: 28.3 µM
HL-60(TB) leukemia
  TGI: 2 µM
HOP-62 NSCLC
  TGI: > 100 µM
HOP-92 NSCLC
  TGI: 15.5 µM
HS 578T breast
  TGI: > 86.5 µM
HT29 colon
  TGI: 49.2 µM
IGROV1 ovarian
  TGI: 39 µM
K-562 leukemia
  TGI: > 36.4 µM
KM12 colon
  TGI: > 91.9 µM
LOX IMVI melanoma
  TGI: 22.8 µM
M14 melanoma
  TGI: 27.3 µM
MALME-3M melanoma
  TGI: 23.2 µM
MCF7 breast
  TGI: 16.5 µM
MDA-MB-231 breast
  TGI: 16.5 µM
MDA-MB-435
  TGI: 38.1 µM
MDA-N
  TGI: 27.7 µM
MOLT-4 leukemia
  TGI: 13.2 µM
NCI-H226 lung
  TGI: > 91.3 µM
NCI-H23 lung
  TGI: 31.4 µM
NCI-H460 lung
  TGI: > 100 µM
NCI-H522 lung
  TGI: 4.95 µM
NCI/ADR-RES ovarian
  TGI: 59.6 µM
OVCAR-3 ovarian
  TGI: 19.6 µM
OVCAR-4 ovarian
  TGI: 11.1 µM
OVCAR-5 ovarian
  TGI: > 73.4 µM
OVCAR-8 ovarian
  TGI: 26.1 µM
PC-3 prostate
  TGI: 19.3 µM
RPMI-8226 leukemia
  TGI: 33.4 µM
RXF 393 renal
  TGI: 10.5 µM
SF-268 CNS
  TGI: 58.2 µM
SF-295 CNS
  TGI: > 100 µM
SF-539 CNS
  TGI: 35.8 µM
SK-MEL-2 melanoma
  TGI: > 74.2 µM
SK-MEL-28 melanoma
  TGI: 28.5 µM
SK-MEL-5 melanoma
  TGI: 56.4 µM
SK-OV-3 ovarian
  TGI: > 100 µM
SN12C renal
  TGI: 31 µM
SNB-19 CNS
  TGI: > 100 µM
SNB-75 CNS
  TGI: 97.8 µM
SR leukemia
  TGI: > 20.2 µM
SW-620 colon
  TGI: 8.54 µM
T-47D breast
  TGI: 9 µM
TK-10 renal
  TGI: 13.7 µM
U251 CNS
  TGI: 23.9 µM
UACC-257 melanoma
  TGI: 30.9 µM
UACC-62 melanoma
  TGI: > 61.3 µM
UO-31 renal
  TGI: 14.9 µM

## O=C(C=Nc1ccccc1C(=O)[O-])c1cccs1.O=C(C=Nc1ccccc1C(=O)[O-])c1cccs1.[Ni+2]
786-0 renal
  TGI: > 100 µM
A498 renal
  TGI: > 100 µM
A549 NSCLC
  TGI: > 100 µM
ACHN renal
  TGI: > 100 µM
CAKI-1 renal
  TGI: > 100 µM
CCRF-CEM leukemia
  TGI: > 100 µM
COLO 205 colon
  TGI: > 100 µM
HCC-2998 colon
  TGI: > 100 µM
HCT-116 colon
  TGI: > 100 µM
HCT-15 colon
  TGI: > 100 µM
HL-60(TB) leukemia
  TGI: > 100 µM
HOP-62 NSCLC
  TGI: > 100 µM
HOP-92 NSCLC
  TGI: > 100 µM
HT29 colon
  TGI: > 100 µM
IGROV1 ovarian
  TGI: > 100 µM
K-562 leukemia
  TGI: > 100 µM
KM12 colon
  TGI: > 100 µM
KM20L2 colon
  TGI: > 100 µM
LOX IMVI melanoma
  TGI: > 100 µM
M14 melanoma
  TGI: > 100 µM
M19-MEL melanoma
  GI50: 31.1 µM
  TGI: > 100 µM
MALME-3M melanoma
  TGI: > 100 µM
MOLT-4 leukemia
  TGI: > 100 µM
NCI-H23 lung
  TGI: > 100 µM
NCI-H460 lung
  TGI: > 100 µM
NCI-H522 lung
  TGI: 55.3 µM
OVCAR-3 ovarian
  TGI: > 100 µM
OVCAR-5 ovarian
  TGI: > 100 µM
OVCAR-8 ovarian
  TGI: > 100 µM
SF-268 CNS
  TGI: > 100 µM
SF-295 CNS
  TGI: > 100 µM
SF-539 CNS
  TGI: > 100 µM
SK-MEL-2 melanoma
  TGI: > 100 µM
SK-MEL-28 melanoma
  TGI: > 100 µM
SK-OV-3 ovarian
  TGI: > 100 µM
SN12C renal
  TGI: > 100 µM
SNB-19 CNS
  TGI: > 100 µM
SR leukemia
  TGI: > 100 µM
SW-620 colon
  TGI: > 100 µM
TK-10 renal
  TGI: > 100 µM
U251 CNS
  TGI: > 100 µM
UACC-257 melanoma
  TGI: > 100 µM
UACC-62 melanoma
  TGI: > 100 µM
UO-31 renal
  TGI: > 100 µM

Source: PubChem BioAssay (NCI)
